Laboratory results as given in patent US20220144823A1, “PYRAZOLOPYRIDINE DERIVATIVES AS INHIBITORS OF PASK” (Galapagos NV, priority 2019, published 2022).

Experiments:
human PASK [1] = biological target: T1, human PASK (Homo sapiens, UniProt Q96RG2); assay: 33P radioactive kinase assay; assay type: biochemical; conditions: 33P radioactive PASK kinase assay, 10 μM ATP, ZIPtide 1 μM
T1 construct: purchased ThermoFisher Scientific PR7013A
Method in brief: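 Human PASK phosphorylation of ZIPtide peptide was measured by incorporation from [^33P]-ATP plus unlabelled ATP, with a 10-point, 1/5 dilution series from 0.2 or 2 mM DMSO stocks and 1% DMSO final. Reactions were stopped with phosphoric acid, filter-harvested, washed and scintillation-counted. Percentage inhibition gave dose–response curves and averaged IC50s.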

human PASK [2] = biological target: T1, human PASK; assay: ADP-Glo kinase assay; assay type: biochemical; conditions: ADPGlo PASK kinase assay, 25 μM ATP, ZIPtide 25 μM
Method in brief: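 Human recombinant PASK phosphorylating ZIPtide peptide with ATP, 120 min at RT; compounds in 10-point 1/5 dilution series, 1% DMSO final. ADP formed measured by ADP-Glo luminescence after ATP depletion; percent inhibition fitted to dose-response curves for averaged IC50.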

T1 sequence (Q96RG2 whole entry): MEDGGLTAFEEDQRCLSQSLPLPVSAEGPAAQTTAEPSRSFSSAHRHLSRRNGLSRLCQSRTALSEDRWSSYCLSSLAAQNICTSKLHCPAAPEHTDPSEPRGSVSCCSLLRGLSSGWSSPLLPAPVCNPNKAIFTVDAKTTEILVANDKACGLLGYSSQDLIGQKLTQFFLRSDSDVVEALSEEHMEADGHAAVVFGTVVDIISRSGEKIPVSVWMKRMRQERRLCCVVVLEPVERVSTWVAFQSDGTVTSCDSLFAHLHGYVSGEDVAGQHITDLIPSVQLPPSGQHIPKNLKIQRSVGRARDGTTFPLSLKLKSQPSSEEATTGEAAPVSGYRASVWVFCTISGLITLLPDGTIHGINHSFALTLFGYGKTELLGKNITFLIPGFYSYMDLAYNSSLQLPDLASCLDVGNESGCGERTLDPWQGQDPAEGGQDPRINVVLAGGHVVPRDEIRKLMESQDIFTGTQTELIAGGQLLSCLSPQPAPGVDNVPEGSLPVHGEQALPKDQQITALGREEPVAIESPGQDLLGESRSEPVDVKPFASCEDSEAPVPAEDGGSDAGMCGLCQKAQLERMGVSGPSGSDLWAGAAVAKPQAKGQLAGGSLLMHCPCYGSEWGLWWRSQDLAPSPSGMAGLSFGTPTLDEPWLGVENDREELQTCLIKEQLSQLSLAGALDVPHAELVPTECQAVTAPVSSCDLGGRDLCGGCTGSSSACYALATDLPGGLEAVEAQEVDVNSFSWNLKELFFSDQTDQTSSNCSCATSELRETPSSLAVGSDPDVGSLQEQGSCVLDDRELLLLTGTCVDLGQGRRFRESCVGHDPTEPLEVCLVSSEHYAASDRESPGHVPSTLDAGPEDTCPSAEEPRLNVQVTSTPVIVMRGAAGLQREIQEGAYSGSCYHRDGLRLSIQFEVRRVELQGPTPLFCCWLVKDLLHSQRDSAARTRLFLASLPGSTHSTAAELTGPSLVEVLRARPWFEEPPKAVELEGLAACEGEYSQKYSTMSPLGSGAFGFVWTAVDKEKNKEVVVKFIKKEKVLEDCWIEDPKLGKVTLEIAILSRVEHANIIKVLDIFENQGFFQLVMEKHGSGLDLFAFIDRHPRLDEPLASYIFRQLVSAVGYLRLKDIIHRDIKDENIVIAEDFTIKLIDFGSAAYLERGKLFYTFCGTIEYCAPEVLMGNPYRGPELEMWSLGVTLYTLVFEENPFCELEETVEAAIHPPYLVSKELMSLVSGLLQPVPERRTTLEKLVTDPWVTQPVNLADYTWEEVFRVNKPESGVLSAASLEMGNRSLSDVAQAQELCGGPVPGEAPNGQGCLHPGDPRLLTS

Q: Which results are given for Cc1nn(C(C)C)c(C)c1-c1cnn2ccc(-c3cc(C(=O)O)co3)cc12 [Cpd 18, 5-[3-(1-isopropyl-3,5-dimethyl-pyrazol-4-yl)pyrazolo[1,5-a]pyridin-5-yl]furan-3-carboxylic acid]?
A: IC50 (human PASK [1]): 0.01 to 10 nM; IC50 (human PASK [2]): 0.01 to 10 nM
